Experimental data published in ChEMBL document CHEMBL2157998, “Synthesis and biological evaluation of new phenothiazine derivatives bearing a pyrazole unit as protein farnesyltransferase inhibitors” (Bioorg Med Chem Lett, 2012).
Active and inactive are the calls of the source. No cut-off for these calls is given here.

How the values were obtained:
HOP-92 = test: Growth inhibition of human HOP92 cells at 10 uM after 48 hrs by single dose SRB assay; type: functional; settings: HOP-92, 48 h, read-out: GI
SNB-19 = test: Growth inhibition of human SNB19 cells at 10 uM after 48 hrs by single dose SRB assay; type: functional
NCI-H226 = test: Growth inhibition of human NCI-H226 cells at 10 uM after 48 hrs by single dose SRB assay; type: functional; settings: for inhibition of growth at 10 µM: NCI-H226, 48 h, read-out: GI
SF-295 = test: Growth inhibition of human SF295 cells at 10 uM after 48 hrs by single dose SRB assay; type: functional
HT-29 = test: Growth inhibition of human HT-29 cells at 10 uM after 48 hrs by single dose SRB assay; type: functional
OVCAR-8 = test: Growth inhibition of human OVCAR8 cells at 10 uM after 48 hrs by single dose SRB assay; type: functional; settings: for inhibition of growth at 10 µM: OVCAR-8, 48 h, read-out: GI
HCT166 = test: (§1) Growth inhibition of human […] cells at 10 uM after 48 hrs by single dose SRB assay; type: functional
RPMI-8226 = test: Growth inhibition of human RPMI8226 cells at 10 uM after 48 hrs by single dose SRB assay; type: functional
NCI-H522 = test: Growth inhibition of human NCI-H522 cells at 10 uM after 48 hrs by single dose SRB assay; type: functional
PC-3 = test: Growth inhibition of human PC3 cells at 10 uM after 48 hrs by single dose SRB assay; type: functional; settings: PC-3, 48 h, read-out: GI
CAKI-1 = test: Growth inhibition of human Caki1 cells at 10 uM after 48 hrs by single dose SRB assay; type: functional
[1] = target: T1, Protein farnesyltransferase (Homo sapiens, UniProt P49354+P49356); test: Inhibition of recombinant human FTase using dansyl-GCVLS as substrate at 100 uM after 15 mins by fluorimetric analysis; type: protein-complex assay
ACHN = test: Growth inhibition of human ACHN cells at 10 uM after 48 hrs by single dose SRB assay; type: functional
U-251 = test: Growth inhibition of human U251 cells at 10 uM after 48 hrs by single dose SRB assay; type: functional
MOLT-4 = test: Growth inhibition of human MOLT4 cells at 10 uM after 48 hrs by single dose SRB assay; type: functional
LOX IMVI = test: Growth inhibition of human LOXIMVI cells at 10 uM after 48 hrs by single dose SRB assay; type: functional
SN12C = test: Growth inhibition of human SN12C cells at 10 uM after 48 hrs by single dose SRB assay; type: functional
NCI/ADR-RES = test: Growth inhibition of human NCI/ADR-RES cells at 10 uM after 48 hrs by single dose SRB assay; type: functional
EKVX = test: Growth inhibition of human EKVX cells at 10 uM after 48 hrs by single dose SRB assay; type: functional; settings: for inhibition of growth at 10 µM: read-out: GI
CCRF-CEM = test: Growth inhibition of human CCRF-CEM cells at 10 uM after 48 hrs by single dose SRB assay; type: functional
HL-60(TB) = test: Growth inhibition of human HL-60(TB) cells at 10 uM after 48 hrs by single dose SRB assay; type: functional; settings: HL-60, 48 h, read-out: GI
MDA-MB-231 = test: Growth inhibition of human MDA-MB-231 cells at 10 uM after 48 hrs by single dose SRB assay; type: functional
UO-31 = test: Growth inhibition of human UO31 cells at 10 uM after 48 hrs by single dose SRB assay; type: functional; settings: for inhibition of growth at 10 µM: UO-31, 48 h, read-out: GI
MDA-MB-468 = test: Growth inhibition of human MDA-MB-468 cells at 10 uM after 48 hrs by single dose SRB assay; type: functional; settings: for inhibition of growth at 10 µM: MDA-MB-468, 48 h, read-out: GI
OVCAR-3 = test: Growth inhibition of human OVCAR3 cells at 10 uM after 48 hrs by single dose SRB assay; type: functional
HCT-15 = test: Growth inhibition of human HCT15 cells at 10 uM after 48 hrs by single dose SRB assay; type: functional
A498 = test: Growth inhibition of human A498 cells at 10 uM after 48 hrs by single dose SRB assay; type: functional; settings: A498, 48 h, read-out: GI
SK-MEL-5 = test: Growth inhibition of human SK-MEL-5 cells at 10 uM after 48 hrs by single dose SRB assay; type: functional
UACC-62 = test: Growth inhibition of human UACC62 cells at 10 uM after 48 hrs by single dose SRB assay; type: functional
SW-620 = test: Growth inhibition of human SW620 cells at 10 uM after 48 hrs by single dose SRB assay; type: functional
[2] = as §1; type: functional; settings: read-out: GI
[3] = target: T1, Protein farnesyltransferase; test: Inhibition of recombinant human FTase using dansyl-GCVLS as substrate after 15 mins by fluorimetric analysis; type: protein-complex assay

Compound	inhibition of growth at 10 µM (HOP-92)	growth inhibition (GI) (SNB-19)	growth inhibition (GI) (HT-29)	growth inhibition (GI) (RPMI-8226)	inhibition of growth at 10 µM (PC-3)	inhibition [1]	growth inhibition (GI) (ACHN)	growth inhibition (GI) (LOX IMVI)	inhibition of growth at 10 µM (HL-60(TB))	growth inhibition (GI) (MDA-MB-231)	growth inhibition (GI) (OVCAR-3)	growth inhibition (GI) (HCT-15)	growth inhibition (GI) (SK-MEL-5)	growth inhibition (GI) (SW-620)	other results
Cc1cc(-c2ccccc2)n(C(=O)CN2c3ccccc3Sc3ccccc32)n1	14%	inactive	inactive	inactive	13%	0%	inactive	inactive	31.5%	inactive	inactive	inactive	inactive	inactive	inhibition of growth at 10 µM (NCI-H226): 7.2%; growth inhibition (GI) (SF-295): inactive; inhibition of growth at 10 µM (OVCAR-8): 6.3%; growth inhibition (GI) (HCT166): inactive; growth inhibition (GI) (NCI-H522): inactive; inhibition of growth at 10 µM (CAKI-1; CAKI-1, 48 h, read-out: GI): 16.2%; inhibition of growth at 10 µM (U-251; U-251, 48 h, read-out: GI): 9.2%; inhibition of growth at 10 µM (MOLT-4; MOLT-4, 48 h, read-out: GI): 9.6%; inhibition of growth at 10 µM (SN12C; read-out: GI): 7.2%; growth inhibition (GI) (NCI/ADR-RES): inactive; inhibition of growth at 10 µM (EKVX): 5%; growth inhibition (GI) (CCRF-CEM): inactive; inhibition of growth at 10 µM (UO-31): 9%; growth inhibition (GI) (MDA-MB-468): inactive; inhibition of growth at 10 µM (A498): 17.3%; growth inhibition (GI) (UACC-62): inactive
CCOC(=O)C1=NN(C(=O)CCN2c3ccccc3Sc3ccccc32)C(O)(c2ccccc2)C1 (centres undefined)	–	–	–	–	–	22.8%	–	–	–	–	–	–	–	–	–
CCOC(=O)C1=NN(C(=O)CN2c3ccccc3Sc3ccccc32)C(O)(c2ccccc2)C1 (centres undefined)	–	–	–	–	–	30.7%	–	–	–	–	–	–	–	–	–
Cc1cc(-c2ccccc2)n(CC(=O)N2c3ccccc3Sc3ccccc32)n1	–	–	–	–	–	0%	–	–	–	–	–	–	–	–	–
N#Cc1cnn(C(=O)CCN2c3ccccc3Sc3ccccc32)c1N	–	–	–	–	–	4.7%	–	–	–	–	–	–	–	–	–
Cc1c2c(nn1C(=O)CCN1c3ccccc3Sc3ccccc31)CCCC2	31.6%	inactive	inactive	inactive	13%	0%	inactive	inactive	19.6%	inactive	inactive	inactive	inactive	inactive	inhibition of growth at 10 µM (NCI-H226): 12.8%; growth inhibition (GI) (SF-295): inactive; growth inhibition (GI) (OVCAR-8): inactive; inhibition of growth at 10 µM [2]: 12.4%; inhibition of growth at 10 µM (NCI-H522; NCI-H522, 48 h, read-out: GI): 9.1%; growth inhibition (GI) (CAKI-1): inactive; growth inhibition (GI) (U-251): inactive; growth inhibition (GI) (MOLT-4): inactive; growth inhibition (GI) (SN12C): inactive; inhibition of growth at 10 µM (NCI/ADR-RES; read-out: GI): 8.2%; inhibition of growth at 10 µM (EKVX): 8.3%; inhibition of growth at 10 µM (CCRF-CEM; read-out: GI): 12.8%; growth inhibition (GI) (UO-31): inactive; inhibition of growth at 10 µM (MDA-MB-468): 11.2%; inhibition of growth at 10 µM (UACC-62; UACC-62, 48 h, read-out: GI): 7.1%
N#Cc1cnn(CC(=O)N2c3ccccc3Sc3ccccc32)c1N	12.5%	inactive	inactive	inactive	9.9%	94.9%	inactive	inactive	46.2%	inactive	inactive	inactive	inactive	inactive	IC50 [3]: 17.2 µM; growth inhibition (GI) (NCI-H226): inactive; inhibition of growth at 10 µM (SF-295; SF-295, 48 h, read-out: GI): 13.1%; inhibition of growth at 10 µM (OVCAR-8): 5.5%; growth inhibition (GI) (HCT166): inactive; growth inhibition (GI) (NCI-H522): inactive; growth inhibition (GI) (CAKI-1): inactive; growth inhibition (GI) (U-251): inactive; growth inhibition (GI) (SN12C): inactive; growth inhibition (GI) (NCI/ADR-RES): inactive; growth inhibition (GI) (EKVX): inactive; growth inhibition (GI) (CCRF-CEM): inactive; inhibition of growth at 10 µM (UO-31): 6.4%; inhibition of growth at 10 µM (MDA-MB-468): 11.7%; inhibition of growth at 10 µM (A498): 14%; growth inhibition (GI) (UACC-62): inactive
CCOC(=O)c1cc(-c2ccccc2)n(CC(=O)N2c3ccccc3Sc3ccccc32)n1	–	–	–	–	–	0%	–	–	–	–	–	–	–	–	–
